Like-named read-outs stand apart in the source and are kept apart here.
Legend:
human Y2 receptor = target: T1, human Y2 receptor (Homo sapiens, UniProt P49146); assay: [35S]GTPγS binding assay in KAN-Ts cells; assay type: biochemical
T1 construct: KAN-Ts endogenously expressing Y2 receptors were used; endogenous in cells; host or cells: KAN-Ts cells
T1 sequence (P49146 1-381): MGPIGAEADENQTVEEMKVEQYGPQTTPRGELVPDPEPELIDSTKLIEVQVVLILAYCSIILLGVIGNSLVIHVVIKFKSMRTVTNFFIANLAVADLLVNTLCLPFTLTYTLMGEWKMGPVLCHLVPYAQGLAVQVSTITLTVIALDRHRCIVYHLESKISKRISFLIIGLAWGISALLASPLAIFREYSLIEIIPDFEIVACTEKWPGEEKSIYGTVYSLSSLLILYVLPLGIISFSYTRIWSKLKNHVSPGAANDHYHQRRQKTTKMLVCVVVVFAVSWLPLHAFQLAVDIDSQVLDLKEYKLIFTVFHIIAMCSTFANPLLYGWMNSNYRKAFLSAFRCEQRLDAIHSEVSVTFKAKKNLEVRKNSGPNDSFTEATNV
Experimental: [^35S] GTPγS binding assay in KAN-Ts cells was performed as described in Bonaventure, P., D. Nepomuceno, C. Mazur, B. Lord, D. A. Rudolph, J. A. Jablonowski, N. I. Carruthers and T. W. Lovenberg, J Pharmacol Exp Ther. 2004, 308, 1130.
Assay mixtures (150 were preincubated with compounds for 30 minutes at ambient temperature. Then, 50 μl of [^35S]GTPγS in assay buffer was added to a final concentration of 200 pM and the assay mixtures were incubated for 1 hour at ambient temperature. Reactions were terminated by rapid filtration thought GF/C filters. Filters were washed twice with ice cold 50 mM Tris-HCl, pH 7.4 containing 10 mM MgCl2. Basal [^35S]GTPγS was measured in the absence of compounds. In initial experiments, nonspecific binding was measured in the presence of 100 μM GTPgS. This nonspecific binding never exceeded 10% of basal binding and was thus not subtracted from experimental data. Stimulation of [^35S]GTPγS was determined as percentage over basal and was calculated as one hundred times the difference between stimulated and basal binding (in cpm). […] Data are expressed as mean±S.E.M.
The antagonistic properties of the compound of formula (A) were evaluated in a [^35S]GTPγS binding assay in KAN-Ts cells endogenously expressing human Y2 receptors. […]

[1] = target: T2, Y2 receptor binding sites in rat hippocampus (Rattus norvegicus, UniProt Q9ERC0); assay: Ex vivo Y2 receptor occupancy in rats (autoradiography)
T2 construct: from tissue; host or cells: rat brain sections (hippocampus) after in vivo dosing
T2 sequence (Q9ERC0 1-381): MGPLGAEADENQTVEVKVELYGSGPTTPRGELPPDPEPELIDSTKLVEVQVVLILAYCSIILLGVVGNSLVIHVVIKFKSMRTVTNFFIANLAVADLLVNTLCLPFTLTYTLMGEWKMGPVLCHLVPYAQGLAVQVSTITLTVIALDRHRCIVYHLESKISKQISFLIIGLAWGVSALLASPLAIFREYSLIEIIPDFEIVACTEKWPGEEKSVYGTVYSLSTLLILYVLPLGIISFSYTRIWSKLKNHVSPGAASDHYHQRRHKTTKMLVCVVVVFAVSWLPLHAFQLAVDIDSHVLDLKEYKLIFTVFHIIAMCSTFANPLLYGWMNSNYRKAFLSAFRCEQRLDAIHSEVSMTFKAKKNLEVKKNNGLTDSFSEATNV
Experimental: (§1) The pharmacokinetic, blood-brain barrier penetration and ex vivo receptor occupancy studies were performed as described in Bonaventure, P., D. Nepomuceno, C. Mazur, B. Lord, D. A. Rudolph, J. A. Jablonowski, N. I. Carruthers and T. W. Lovenberg, J Pharmacol Exp Ther. 2004, 308, 1130.
(§2) The compound of formula (A) was formulated in 20% hydroxypropylbetacyclodextrine. Subcutaneous (SC), oral (PO) or intravenous (IV) dosing was followed by blood sampling via cardiac puncture over a time course. Blood samples consisted of 250 μl samples taken from the heart using a 23-gauge needle into 1.5 ml micro-centrifuge tubes. Brains were removed from the animals and bisected down the midsagittal plane. One hemisphere was frozen on dry ice for ex vivo receptor binding autoradiography and the other was homogenized for LC/MS-MS analysis.
Ex vivo receptor binding autoradiography was performed on brain sections. Twenty-micron-thick coronal sections at the level of the […] regions were collected and incubated for 10 min with 100 pM [^125I]PYY in Krebs-Ringer phosphate buffer (KRP) at pH 7.4 supplemented with 0.1% BSA, 0.05% bacitracin, and 1 μM BIBP-3226 for Y1 receptor occlusion. The sections were not washed prior to incubation and were incubated 10 minutes to avoid dissociation. Nonspecific binding was determined using adjacent sections incubated in the presence of 1 μM unlabelled hNPY. At the end of the incubation, sections were washed 4 times (4 minutes each) in ice cold buffer, dipped in deionized water and rapidly dried under a stream of cold air. Sections were exposed to a Fujifilm Imaging Plate (BAS-MS2025) for 12 hours. The Phosphor Imaging Plate was scanned using a Fuji Bio-Imaging Analyzer System (BAS-5000). The digitized computer images generated by the scanner were visualized and quantified using ImageGauge V3.12 software (Fujifilm).

[2] = Pharmacokinetic study in rats; assay type: in vivo; conditions: rat, whole blood; for Vd: iv
Experimental: as §1, §2
All blood samples were deproteinized by 1:4 dilution of the sample with acetonitrile with vigorous mixing. These samples were incubated for 5 minutes, and then centrifuged at 14,000 rpm in a micro-centrifuge for 4 minutes. The supernatant was recovered into auto-sampler vials and diluted 1:1 with sterile water. Samples were analyzed by LC-MS/MS. A Vydac SP C18 2.1×50 mm analytical column was used for separation.
Oral, subcutaneous and intravenous pharmacokinetic parameters of the compound of formula (A) were determined in rats and are listed in Table 2 below.

## CCN(CC)C(=O)C(c1ccccc1)N1CCN(c2ccc(NC(=O)c3ccccc3-c3cccnc3)cc2F)CC1 (racemic) [Cmpd (A), N-{4-[4-(Diethylcarbamoyl-phenyl-methyl)-piperazin-1-yl]-3-fluoro-phenyl}-2-pyridin-3-yl-benzamide]
Human Y2 receptor; read-out: hY2 pIC50corr (converted)
  IC50: 0.0501 nM
Human Y2 receptor; up to 10 μM, no PYY
  effect of compound by itself on [35S]GTPγS binding: did not affect
[1]; rat hippocampus, SC 10 mg/kg
  time of maximal receptor binding site occupancy: ~1 h
[1]; rat hippocampus, SC, t=60 min
  ED50: 2 mg/kg
[1]; rat, 10 mg/kg SC, read-out: maximal ex vivo receptor occupancy
  receptor occupancy at 10 mg/kg: ~100%
[2]; read-out: VSS
  Vd: 0.73 L/kg
[2]; read-out: Vz
  Vd: 1.07 L/kg
[2]; IV
  AUC(0-inf): 0.708 µM·h
  C0: 5.33 µM
  clearance: 42.3 mL/min/kg
  half-life: 17.4 min
[2]; PO 10 mg/kg
  AUC(0-inf): 0.444 µM·h
  Cmax: 0.414 µM
  Tmax: 30 min
  bioavailability: 6%
  half-life: 31.8 min
[2]; SC 10 mg/kg
  AUC(0-inf): 7.91 µM·h
  Cmax: 4.35 µM
  Tmax: 30 min
  bioavailability: > 100%
  half-life: 50 min

Reference: patent publication US8338426B2, “Piperazinyl derivatives useful as modulators of the neuropeptide Y2 receptor” (Janssen Pharmaceutica NV, priority 2007, dated 2012)
